Results on 34 compounds are retold here after ChEMBL document CHEMBL4842352, “Novel diarylamides and diarylureas with N-substitution dependent activity against medulloblastoma” (Eur J Med Chem, 2021).

By IC50 is commonly meant the concentration that inhibits the measured activity by half. In general, inhibition refers to the relative decrease from the control value, in per cent.

SMILES strings stand for the structures. Calls of active or inactive are those of the source. No cut-off for these calls is given here.

Test [1] deals with Daoy. The experiment in a line: Cytotoxicity against human DAOY cells assessed as reduction in cell viability incubated for 72 hrs by MTT assay. The test is classed as functional, cell-based.
For test [2], the system named is ONS-76. The experiment in a line: Cytotoxicity against human ONS-76 cells assessed as reduction in cell viability incubated for 72 hrs by MTT assay. The test is classed as functional, cell-based. The conditions noted are these: ONS-76, 72 h. For orientation: Formazan colour is commonly taken as a measure of viable cells.
Test [3] concerns Daoy. The experiment in a line: Potency index, ratio of 1-(naphthalen-1-yl)-3-(3,4,5-trimethoxyphenyl)urea IC50 to test compound IC50 for cytotoxicity against human DAOY cells assessed as reduction in cell viability incubated for 72 hrs by MTT assay. The test is classed as functional.
For test [4], the target named is T1, Aurora kinase A (Homo sapiens) (UniProt O14965).
T1 sequence (whole entry): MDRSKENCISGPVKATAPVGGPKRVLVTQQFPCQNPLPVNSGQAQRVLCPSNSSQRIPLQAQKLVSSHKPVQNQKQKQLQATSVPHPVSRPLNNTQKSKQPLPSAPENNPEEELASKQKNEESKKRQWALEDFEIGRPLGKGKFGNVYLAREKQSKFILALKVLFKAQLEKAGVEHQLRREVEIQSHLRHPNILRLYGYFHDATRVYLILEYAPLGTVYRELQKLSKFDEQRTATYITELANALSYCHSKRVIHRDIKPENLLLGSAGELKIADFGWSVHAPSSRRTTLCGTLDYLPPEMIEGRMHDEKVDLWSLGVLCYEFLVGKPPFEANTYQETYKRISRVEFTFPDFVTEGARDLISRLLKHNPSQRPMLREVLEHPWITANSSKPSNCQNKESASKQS
The experiment in a line: Inhibition of Aurora A (unknown origin) at 100 uM relative to control.

Test [5] deals with Vascular endothelial growth factor receptor 2 (Homo sapiens) (UniProt P35968). The experiment in a line: Inhibition of VEGFR2 (unknown origin) at 100 uM.
The subject of test [6] is ONS-76. The experiment in a line: Potency index, ratio of 1-(naphthalen-1-yl)-3-(3,4,5-trimethoxyphenyl)urea IC50 to test compound IC50 for cytotoxicity against human ONS-76 cells assessed as reduction in cell viability incubated for 72 hrs by MTT assay. The test is classed as functional.
The target in test [7] is Insulin-like growth factor 1 receptor (Homo sapiens) (UniProt P08069). The experiment in a line: Inhibition of IGF-1R (unknown origin) at 100 uM.
The target of test [8] is Cyclin-dependent kinase 2 (Homo sapiens) (UniProt P24941). The experiment in a line: Inhibition of CDK2 (unknown origin) at 100 uM.

Sequence of Vascular endothelial growth factor receptor 2 (Homo sapiens) (P35968 whole entry): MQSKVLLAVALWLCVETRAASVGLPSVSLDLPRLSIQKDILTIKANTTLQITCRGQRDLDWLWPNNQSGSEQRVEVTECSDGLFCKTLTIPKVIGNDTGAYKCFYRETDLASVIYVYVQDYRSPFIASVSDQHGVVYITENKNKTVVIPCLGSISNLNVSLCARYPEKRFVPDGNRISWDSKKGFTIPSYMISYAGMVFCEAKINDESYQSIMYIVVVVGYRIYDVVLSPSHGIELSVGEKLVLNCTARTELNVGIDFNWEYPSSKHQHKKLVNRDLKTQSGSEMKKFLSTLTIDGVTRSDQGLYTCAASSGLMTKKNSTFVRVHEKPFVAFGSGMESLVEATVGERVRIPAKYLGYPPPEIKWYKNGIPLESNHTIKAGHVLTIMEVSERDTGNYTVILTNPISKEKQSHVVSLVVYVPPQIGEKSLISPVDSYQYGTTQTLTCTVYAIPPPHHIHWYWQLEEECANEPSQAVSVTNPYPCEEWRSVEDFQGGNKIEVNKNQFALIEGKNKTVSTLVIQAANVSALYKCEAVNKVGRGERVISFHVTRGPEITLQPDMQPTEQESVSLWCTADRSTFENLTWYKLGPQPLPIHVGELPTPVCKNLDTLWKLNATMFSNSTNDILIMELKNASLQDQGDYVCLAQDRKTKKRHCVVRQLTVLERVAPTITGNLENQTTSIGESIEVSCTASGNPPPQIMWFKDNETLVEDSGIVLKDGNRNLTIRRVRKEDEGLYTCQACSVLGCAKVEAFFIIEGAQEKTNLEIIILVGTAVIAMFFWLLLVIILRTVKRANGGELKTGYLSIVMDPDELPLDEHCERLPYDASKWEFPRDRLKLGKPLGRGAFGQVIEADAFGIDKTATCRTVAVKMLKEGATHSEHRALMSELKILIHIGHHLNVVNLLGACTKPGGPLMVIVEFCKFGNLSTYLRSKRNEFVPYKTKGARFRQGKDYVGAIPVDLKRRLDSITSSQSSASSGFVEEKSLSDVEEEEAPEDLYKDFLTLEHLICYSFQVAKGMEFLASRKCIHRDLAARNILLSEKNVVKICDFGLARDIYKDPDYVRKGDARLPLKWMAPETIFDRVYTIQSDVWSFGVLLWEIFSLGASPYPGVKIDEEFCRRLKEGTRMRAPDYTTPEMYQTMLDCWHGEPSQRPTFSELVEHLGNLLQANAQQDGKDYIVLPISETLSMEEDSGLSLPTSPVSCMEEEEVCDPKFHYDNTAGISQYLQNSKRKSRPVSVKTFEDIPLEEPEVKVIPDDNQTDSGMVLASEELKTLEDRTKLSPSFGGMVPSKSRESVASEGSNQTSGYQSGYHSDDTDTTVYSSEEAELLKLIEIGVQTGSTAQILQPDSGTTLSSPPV
Sequence of Insulin-like growth factor 1 receptor (Homo sapiens) (P08069 31-736 limits assumed): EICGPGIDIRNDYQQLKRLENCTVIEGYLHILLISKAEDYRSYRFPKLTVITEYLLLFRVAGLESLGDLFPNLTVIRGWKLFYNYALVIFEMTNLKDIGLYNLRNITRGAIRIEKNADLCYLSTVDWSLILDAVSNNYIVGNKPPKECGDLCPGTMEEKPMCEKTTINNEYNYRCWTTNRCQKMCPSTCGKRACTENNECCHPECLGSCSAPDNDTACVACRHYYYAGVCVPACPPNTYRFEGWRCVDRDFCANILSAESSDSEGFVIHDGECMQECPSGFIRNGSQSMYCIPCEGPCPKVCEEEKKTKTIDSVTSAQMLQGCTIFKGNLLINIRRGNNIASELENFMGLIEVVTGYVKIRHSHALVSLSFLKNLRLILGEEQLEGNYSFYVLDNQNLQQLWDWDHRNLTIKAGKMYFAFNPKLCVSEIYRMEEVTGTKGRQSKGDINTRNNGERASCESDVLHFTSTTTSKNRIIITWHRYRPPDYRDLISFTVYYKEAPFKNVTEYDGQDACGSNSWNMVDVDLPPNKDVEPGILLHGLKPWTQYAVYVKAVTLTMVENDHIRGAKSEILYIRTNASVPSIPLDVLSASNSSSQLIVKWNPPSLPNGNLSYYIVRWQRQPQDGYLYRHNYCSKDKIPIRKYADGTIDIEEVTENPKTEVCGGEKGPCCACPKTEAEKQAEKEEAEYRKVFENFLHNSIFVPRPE
Sequence of Insulin-like growth factor 1 receptor (Homo sapiens) (P08069 741-1367 limits assumed): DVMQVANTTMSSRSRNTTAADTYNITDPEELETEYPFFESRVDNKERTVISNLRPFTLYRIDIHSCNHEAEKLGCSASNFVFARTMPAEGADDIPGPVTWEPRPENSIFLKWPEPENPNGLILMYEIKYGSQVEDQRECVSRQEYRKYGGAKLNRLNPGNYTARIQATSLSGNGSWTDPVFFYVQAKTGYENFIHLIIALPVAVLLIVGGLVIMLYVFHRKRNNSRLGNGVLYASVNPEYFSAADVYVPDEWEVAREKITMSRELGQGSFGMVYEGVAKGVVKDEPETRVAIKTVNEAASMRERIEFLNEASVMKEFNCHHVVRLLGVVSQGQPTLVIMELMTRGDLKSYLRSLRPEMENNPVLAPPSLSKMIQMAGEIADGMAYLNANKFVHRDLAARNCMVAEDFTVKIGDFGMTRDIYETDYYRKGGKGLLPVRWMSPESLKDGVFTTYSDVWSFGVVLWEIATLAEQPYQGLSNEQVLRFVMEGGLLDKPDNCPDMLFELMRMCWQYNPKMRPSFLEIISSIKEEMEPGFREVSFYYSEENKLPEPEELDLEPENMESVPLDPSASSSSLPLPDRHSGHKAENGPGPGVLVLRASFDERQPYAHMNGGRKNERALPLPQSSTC

In the case of `COc1cc(N(C)C(=O)c2cccc(F)c2)cc(OC)c1OC`, the IC50 with Daoy [1] and with ONS-76 [2] was ≥ 125 µM each time.
With `COc1cc(N(C)C(=O)N(C)c2ccc(F)cc2)cc(OC)c1OC`, the IC50 with Daoy [1] and in the test with ONS-76 [2] was ≥ 125 µM in each case.
With `COc1cc(N(C)C(=O)N(C)c2cccc(F)c2)cc(OC)c1OC`, the half-maximal inhibitory concentration (IC50) in the test on Daoy [1] and in the test with ONS-76 [2] was ≥ 125 µM throughout.
`COc1cc(NC(=O)Nc2cccc3cc(O)ccc23)cc(OC)c1OC`: the IC50 in the test with Daoy [1] and in the test on ONS-76 [2] was ≥ 125 µM throughout.
For `COc1cc(NC(=O)Nc2ccc3c(ccn3C)c2)cc(OC)c1OC`, the “Ratio IC50” value in the test with Daoy [3] was 36.5. The IC50 is 0.16 µM in the test on Daoy [1] and ≥ 125 µM in the test on ONS-76 [2].
`COc1cc(N(C)C(=O)N(C)c2cccc([N+](=O)[O-])c2)cc(OC)c1OC`: the half-inhibitory concentration (IC50) in the test with Daoy [1] and with ONS-76 [2] was ≥ 125 µM throughout.
With `COc1cc(NC(=O)Nc2ccc(O)c3ccccc23)cc(OC)c1OC`, the “Ratio IC50” value in the test with Daoy [3] stood at 58.4; in the test with ONS-76 [6], 0.98. In test [4], this compound came in with an inhibition of 30%. Moreover, the inhibition entry in test [5], in test [7] and in test [8] was “inactive” each time. For the same compound, the figures for the IC50 in the test with Daoy [1] and in the test with ONS-76 [2] were 0.1 µM and 2.5 µM, respectively.
Consider `COc1ccc(NC(=O)Nc2cc(OC)c(OC)c(OC)c2)cc1`, for which the 50% inhibitory concentration (IC50) with Daoy [1] is 14.8 µM; with ONS-76 [2], 12.9 µM.
On the same counts, the results for `COc1cc(NC(=O)Nc2ccc([N+](=O)[O-])cc2)cc(OC)c1OC` are 70.8 µM and 35 µM.
`COc1cc(NC(=O)Nc2cccc3c2CCC3)cc(OC)c1OC`: the “Ratio IC50” value with Daoy [3] was found to be 12.4. The values for the IC50 with Daoy [1] and with ONS-76 [2] were 0.47 µM and ≥ 125 µM, respectively.
`COc1cc(NC(=O)c2cccc3ccccc23)cc(OC)c1OC`: the half-maximal inhibitory concentration (IC50) in the test on Daoy [1] worked out at 48.7 µM; in the test on ONS-76 [2], 26.8 µM.
The corresponding values for `COc1cc(N(C)C(=O)c2ccc([N+](=O)[O-])cc2)cc(OC)c1OC` are ≥ 125 µM and ≥ 125 µM.
As for `COc1ccc(C(=O)Nc2cc(OC)c(OC)c(OC)c2)cc1`, the half-maximal inhibitory concentration (IC50) in the test with Daoy [1] and in the test with ONS-76 [2] was ≥ 125 µM throughout.
In the case of `COc1cc(NC(=O)Nc2cccc3cc4ccccc4cc23)cc(OC)c1OC`, the “Ratio IC50” value with Daoy [3] is 4.7; in the test on ONS-76 [6], 0.25. Also, the half-inhibitory concentration (IC50) in the test on Daoy [1] was found to be 1.25 µM; in the test on ONS-76 [2], 10 µM.
Take `COc1cc(NC(=O)Nc2ccc(F)cc2)cc(OC)c1OC`: the IC50 is 104 µM in the test on Daoy [1] and 63.2 µM in the test with ONS-76 [2].
On to `COc1cc(NC(=O)c2ccccc2)cc(OC)c1OC`, for which the IC50 with Daoy [1] and with ONS-76 [2] was ≥ 125 µM each time.
With `COc1cc(N(C)C(=O)c2ccccc2)cc(OC)c1OC`, the IC50 with Daoy [1] and with ONS-76 [2] was ≥ 125 µM each time.
Consider `COc1cc(NC(=O)c2ccc(F)cc2)cc(OC)c1OC`, for which the IC50 in the test on Daoy [1] and in the test on ONS-76 [2] was ≥ 125 µM throughout.
In the case of `COc1cc(NC(=O)Nc2cccc([N+](=O)[O-])c2)cc(OC)c1OC`, the concentration for half-maximal inhibition (IC50) turned out to be 82.5 µM in the test with Daoy [1] and 79.6 µM with ONS-76 [2].
Regarding `COc1cc(NC(=O)Nc2cccc3ccccc23)cc(OC)c1OC`, the figures for the concentration for half-maximal inhibition (IC50) with Daoy [1] and with ONS-76 [2] were 5.84 µM and 2.45 µM, respectively.
On the same counts, the results for `COc1cc(NC(=O)c2cccc(F)c2)cc(OC)c1OC` are ≥ 125 µM and ≥ 125 µM.
On the same counts, the results for `COc1cc(NC(=O)Nc2cccc3cc[nH]c23)cc(OC)c1OC` are ≥ 125 µM and ≥ 125 µM.
Regarding `COc1cc(NC(=O)c2ccc([N+](=O)[O-])cc2)cc(OC)c1OC`, the IC50 in the test on Daoy [1] is 52.9 µM; in the test on ONS-76 [2], ≥ 125 µM.
On the same counts, the results for `COc1cc(NC(=O)c2cccc([N+](=O)[O-])c2)cc(OC)c1OC` are ≥ 125 µM and ≥ 125 µM.
The corresponding values for `COc1cc(N(C)C(=O)N(C)c2cccc3ccccc23)cc(OC)c1OC` are ≥ 125 µM and ≥ 125 µM.
On the same counts, the results for `COc1cc(N(C)C(=O)N(C)c2ccc([N+](=O)[O-])cc2)cc(OC)c1OC` are ≥ 125 µM and ≥ 125 µM.
Consider `COc1cc(N(C)C(=O)c2cccc([N+](=O)[O-])c2)cc(OC)c1OC`, for which the 50% inhibitory concentration (IC50) in the test with Daoy [1] and in the test with ONS-76 [2] was ≥ 125 µM each time.
As to `COc1cc(N(C)C(=O)c2ccc(F)cc2)cc(OC)c1OC`, the IC50 in the test on Daoy [1] and in the test with ONS-76 [2] was ≥ 125 µM in each case.
With `COc1cc(NC(=O)Nc2cccc3ncccc23)cc(OC)c1OC`, in the test on Daoy [3], the “Ratio IC50” value is 1.5. For the same compound, the figures for the IC50 in the test on Daoy [1] and with ONS-76 [2] were 4 µM and ≥ 125 µM, respectively.
As to `COc1cc(N(C)C(=O)c2cccc3ccccc23)cc(OC)c1OC`, the 50% inhibitory concentration (IC50) is ≥ 125 µM with Daoy [1] and 65.7 µM with ONS-76 [2].
Turning to `COc1cc(NC(=O)Nc2c3ccccc3cc3ccccc23)cc(OC)c1OC`, the results for the IC50 in the test on Daoy [1] and in the test with ONS-76 [2] were ≥ 125 µM and 10 µM, respectively. The “Ratio IC50” value in the test on ONS-76 [6] amounted to 0.25.
Turning to `COc1cc(NC(=O)Nc2cccc(F)c2)cc(OC)c1OC`, the values for the concentration for half-maximal inhibition (IC50) in the test on Daoy [1] and in the test on ONS-76 [2] were 111 µM and 65.5 µM, respectively.
For `COc1ccc(C(=O)N(C)c2cc(OC)c(OC)c(OC)c2)cc1`, the IC50 with Daoy [1] and in the test on ONS-76 [2] was ≥ 125 µM throughout.
Take `COc1ccc(N(C)C(=O)N(C)c2cc(OC)c(OC)c(OC)c2)cc1`: the concentration for half-maximal inhibition (IC50) in the test with Daoy [1] and with ONS-76 [2] was ≥ 125 µM throughout.
